In ChEMBL document CHEMBL3392979, “Discovery and SAR study of c-Met kinase inhibitors bearing an 3-amino-benzo[d]isoxazole or 3-aminoindazole scaffold” (Bioorg Med Chem, 2015):

What was measured:
[1] = target: T1, Hepatocyte growth factor receptor (Homo sapiens, UniProt P08581); experiment: Inhibition of purified recombinant c-MET (unknown origin) using poly (Glu, Tyr) substrate after 60 mins by ELISA
[2] = Antiproliferative activity against human EBC1 cells after 72 hrs; settings: EBC-1, 72 h
[3] = target: T2, Vascular endothelial growth factor receptor 2 (Homo sapiens, UniProt P35968); experiment: Inhibition of purified VEGFR2 (unknown origin) at 1 uM after 60 mins by ELISA
[4] = target: Platelet-derived growth factor receptor beta (Homo sapiens) (UniProt P09619); experiment: Inhibition of purified PDGFRbeta (unknown origin) at 1 uM after 60 mins by ELISA
[5] = target: ALK tyrosine kinase receptor (Homo sapiens) (UniProt Q9UM73); experiment: Inhibition of purified ALK (unknown origin) at 1 uM after 60 mins by ELISA
[6] = target: T2, Vascular endothelial growth factor receptor 2; experiment: Inhibition of purified VEGFR2 (unknown origin) at 0.1 uM after 60 mins by ELISA
[7] = target: Tyrosine-protein kinase ABL1 (Homo sapiens) (UniProt P00519); experiment: Inhibition of purified ABL (unknown origin) at 1 uM after 60 mins by ELISA
[8] = target: Receptor tyrosine-protein kinase erbB-4 (Homo sapiens) (UniProt Q15303); experiment: Inhibition of purified ErbB4 (unknown origin) at 1 uM after 60 mins by ELISA
[9] = target: Fibroblast growth factor receptor 1 (Homo sapiens) (UniProt P11362); experiment: Inhibition of purified FGFR1 (unknown origin) at 1 uM after 60 mins by ELISA
[10] = target: Proto-oncogene tyrosine-protein kinase Src (Homo sapiens) (UniProt P12931); experiment: Inhibition of purified c-Src (unknown origin) at 1 uM after 60 mins by ELISA
[11] = target: Ephrin type-A receptor 2 (Homo sapiens) (UniProt P29317); experiment: Inhibition of purified EPH-A2 (unknown origin) at 1 uM after 60 mins by ELISA
[12] = target: Receptor tyrosine-protein kinase erbB-2 (Homo sapiens) (UniProt P04626); experiment: Inhibition of purified ErbB2 (unknown origin) at 1 uM after 60 mins by ELISA
[13] = target: T2, Vascular endothelial growth factor receptor 2; experiment: Inhibition of purified VEGFR2 (unknown origin) at 0.01 uM after 60 mins by ELISA
[14] = target: ALK tyrosine kinase receptor (Homo sapiens) (UniProt Q9UM73); experiment: Inhibition of purified ALK (unknown origin) at 0.1 uM after 60 mins by ELISA
[15] = target: Epidermal growth factor receptor (Homo sapiens) (UniProt P00533); experiment: Inhibition of purified EGFR (unknown origin) at 1 uM after 60 mins by ELISA
[16] = target: T1, Hepatocyte growth factor receptor; experiment: Inhibition of purified c-MET (unknown origin) at 0.1 uM after 60 mins by ELISA
[17] = target: Proto-oncogene tyrosine-protein kinase receptor Ret (Homo sapiens) (UniProt P07949); experiment: Inhibition of purified RET (unknown origin) at 1 uM after 60 mins by ELISA
[18] = target: Platelet-derived growth factor receptor alpha (Homo sapiens) (UniProt P16234); experiment: Inhibition of purified PDGFRalpha (unknown origin) at 1 uM after 60 mins by ELISA
[19] = target: Vascular endothelial growth factor receptor 1 (Homo sapiens) (UniProt P17948); experiment: Inhibition of purified Flt1 (unknown origin) at 1 uM after 60 mins by ELISA
[20] = target: T1, Hepatocyte growth factor receptor; experiment: Inhibition of purified c-MET (unknown origin) at 0.01 uM after 60 mins by ELISA
[21] = target: T1, Hepatocyte growth factor receptor; experiment: Inhibition of purified c-MET (unknown origin) at 1 uM after 60 mins by ELISA
[22] = target: Insulin-like growth factor 1 receptor (Homo sapiens) (UniProt P08069); experiment: Inhibition of purified IGF1R (unknown origin) at 1 uM after 60 mins by ELISA
[23] = target: T2, Vascular endothelial growth factor receptor 2; experiment: Inhibition of purified VEGFR2 (unknown origin) after 60 mins by ELISA

Structure (SMILES): Nc1noc2cccc(-c3ccc(NC(=O)C4(C(=O)Nc5cccc(F)c5)CC4)cc3)c12
- IC50 [1]: > 1000 nM

Structure (SMILES): Nc1n[nH]c2cccc(-c3ccc(NC(=O)C4(C(=O)Nc5ccc(Cl)cc5)CC4)cc3F)c12
- IC50 [2]: 990 nM

Structure (SMILES): CN1CCN(Cc2cc(NC(=O)C3(C(=O)Nc4ccc(-c5cccc6[nH]nc(N)c56)cc4)CC3)ccc2Cl)CC1
- IC50 [2]: > 10000 nM

Structure (SMILES): Nc1n[nH]c2cccc(-c3ccc(NC(=O)C4(C(=O)Nc5ccc(F)cc5)CC4)cc3F)c12
- inhibition [3]: 100%
- inhibition [4]: 59.3%
- inhibition [5]: 64.9%
- inhibition [6]: 89.9%
- inhibition [7]: 9.8%
- inhibition [8]: 3%
- inhibition [9]: 21.5%
- IC50 [1]: 1.8 nM
- inhibition [10]: 11.8%
- inhibition [11]: 38.4%
- inhibition [12]: 0%
- inhibition [13]: 45.8%
- inhibition [14]: 36.2%
- inhibition [15]: 2.5%
- inhibition [16]: 100%
- inhibition [17]: 66.1%
- inhibition [18]: 62.5%
- inhibition [19]: 40.8%
- IC50 [2]: 180 nM
- inhibition [20]: 69.7%
- inhibition [21]: 100%
- inhibition [22]: 45.3%

Structure (SMILES): CN1CCN(c2ccc(NC(=O)C3(C(=O)Nc4ccc(-c5cccc6onc(N)c56)cc4)CC3)cc2F)CC1
- IC50 [1]: > 1000 nM

Structure (SMILES): CC(C)(C(=O)Nc1ccc(F)cc1)C(=O)Nc1ccc(-c2cccc3onc(N)c23)cc1
- IC50 [1]: > 1000 nM

Structure (SMILES): Nc1n[nH]c2cccc(-c3ccc(NC(=O)C4(C(=O)Nc5ccc(F)cc5)CC4)c(F)c3)c12
- IC50 [2]: 510 nM

Structure (SMILES): C[C@@H](Oc1cc(-c2cnn(C3CCNCC3)c2)cnc1N)c1c(Cl)ccc(F)c1Cl [CRIZOTINIB]
- IC50 [2]: 21 nM

Structure (SMILES): Nc1noc2cccc(-c3ccc(NC(=O)C4(C(=O)Nc5ccc(F)cc5)CC4)cc3F)c12
- IC50 [2]: 900 nM

Structure (SMILES): Nc1noc2cccc(-c3ccc(NC(=O)C4(C(=O)Nc5ccc(Cl)cc5)CC4)cc3)c12
- IC50 [2]: 6700 nM

Structure (SMILES): Nc1noc2cccc(-c3ccc(NC(=O)C4(C(=O)Nc5ccc(F)c(F)c5)CC4)cc3)c12
- IC50 [2]: > 10000 nM

Structure (SMILES): Cc1ccc(NC(=O)C2(C(=O)Nc3ccc(-c4cccc5[nH]nc(N)c45)c(F)c3)CC2)cc1
- IC50 [2]: 910 nM

Structure (SMILES): Nc1n[nH]c2cccc(-c3ccc(NC(=O)C4(C(=O)Nc5ccc(F)cc5F)CC4)cc3)c12
- IC50 [2]: 990 nM

Structure (SMILES): Nc1n[nH]c2cccc(-c3ccc(NC(=O)C4(C(=O)Nc5ccc(F)cc5)CC4)cc3)c12
- IC50 [2]: 820 nM

Structure (SMILES): CN(C)Cc1cc(NC(=O)C2(C(=O)Nc3ccc(F)cc3)CC2)ccc1-c1cccc2[nH]nc(N)c12
- IC50 [1]: > 1000 nM

Structure (SMILES): COc1cc(NC(=O)C2(C(=O)Nc3ccc(F)cc3)CC2)ccc1-c1cccc2[nH]nc(N)c12
- IC50 [1]: > 1000 nM

Structure (SMILES): Nc1noc2cccc(-c3ccc(NC(=O)C4(C(=O)Nc5ccc(F)cc5)CC4)cc3)c12
- IC50 [2]: 1200 nM
- IC50 [23]: > 1000 nM

Structure (SMILES): Nc1noc2cccc(-c3ccc(NC(=O)C4(C(=O)Nc5ccc(-c6cnn(C7CCNCC7)c6)cc5)CC4)cc3)c12
- IC50 [1]: > 1000 nM

Structure (SMILES): Nc1noc2cccc(-c3ccc(NC(=O)C4(C(=O)Nc5ccc(-c6cnn(C7CCOCC7)c6)cc5)CC4)cc3)c12
- IC50 [1]: > 1000 nM

Structure (SMILES): Nc1noc2cccc(-c3ccc(NC(=O)C4(C(=O)Nc5ccc(F)cc5F)CC4)cc3)c12
- IC50 [2]: > 10000 nM

Structure (SMILES): Cc1cc(NC(=O)C2(C(=O)Nc3ccc(F)cc3)CC2)ccc1-c1cccc2[nH]nc(N)c12
- IC50 [2]: 1000 nM

Structure (SMILES): Cn1cc(-c2ccc(NC(=O)C3(C(=O)Nc4ccc(-c5cccc6onc(N)c56)cc4)CC3)cc2)cn1
- IC50 [1]: > 1000 nM

Structure (SMILES): CC(C)C(C(=O)Nc1ccc(F)cc1)C(=O)Nc1ccc(-c2cccc3onc(N)c23)cc1 (stereo unspecified)
- IC50 [1]: > 1000 nM

Structure (SMILES): Nc1n[nH]c2cccc(-c3ccc(NC(=O)C4(C(=O)Nc5ccc(F)cc5)CC4)c4ccccc34)c12
- IC50 [1]: > 1000 nM

Structure (SMILES): Cn1nccc1-c1ccc(NC(=O)C2(C(=O)Nc3ccc(-c4cccc5onc(N)c45)cc3)CC2)cc1
- IC50 [1]: > 1000 nM

Structure (SMILES): COc1cc(NC(=O)C2(C(=O)Nc3ccc(-c4cccc5onc(N)c45)cc3)CC2)cc(OC)c1OC
- IC50 [1]: > 1000 nM

Structure (SMILES): Nc1noc2cccc(-c3ccc(NC(=O)CC(=O)Nc4ccc(F)cc4)cc3)c12
- IC50 [2]: > 10000 nM

Structure (SMILES): Cc1ccc(NC(=O)C2(C(=O)Nc3ccc(-c4cccc5onc(N)c45)cc3)CC2)cc1
- IC50 [2]: 6300 nM

Structure (SMILES): CC(=O)c1ccc(-c2ccc(NC(=O)C3(C(=O)Nc4ccc(-c5cccc6onc(N)c56)cc4)CC3)cc2)s1
- IC50 [1]: > 1000 nM
